In US6916802B2, “Amino ceramide-like compounds and therapeutic methods of use” (Genzyme Corporation, priority 2002, dated 2005):
Where “and” joins values, the source holds several entries; their conditions need not be identical. Equal entries are not always repeated. Marks after values point to notes of the source that are not given here.

What was measured:
[1] = system: HT-29 colon adenocarcinoma cells; test: Tumor cell growth in vitro (sulforhodamine B), HT-29; type: cell-based, human; conditions: rounded off to one digit, read-out: Inhibition of tumor cell growth in vitro, IC50
Method: Growth of cell lines. Comparisons of different inhibitors with regard to suppression of human cancer cell growth were made by the University of Michigan Cancer Center in vitro Drug Evaluation Core Laboratory. MCF-7 breast carcinoma cells, HT-29 colon adenocarcinoma cells, H-460 lung large cell carcinoma cells, and 9L brain gliosarcoma cells were grown in RPMI 1640 medium with 5% fetal bovine serum, 2 mM glutamine, 50 units/ml of penicillin, […] of streptomycin, and 0.1 mg/ml of neomycin. UMSCC-10A head and neck squamous carcinoma cells were grown in minimal essential medium with Earle salts and the same supplements. Medium components were from Sigma Chemical Co. Cells were plated in 96-well microtiter plates (1000 cells/well for H-460 and 9L cells, and 2000 cells/well for the other lines), and the test compounds were added 1 day later. The stock inhibitor solutions, 2 mM in 2 mM BSA, were diluted with different amounts of additional 2 mM BSA, then each solution was diluted 500-fold with growth medium to obtain the final concentrations indicated in the Figures and Tables.
Five days after plating the H-460 and 9L cells, or 6 days for the other lines, cell growth was evaluated by staining the adhering cells with sulforhodamine B and measuring the absorbance at 520 nm (Skehan, P. et al., “New Colorimetric Cytotoxicity Assay for Anticancer-Drug Screening,” J. Natl. Cancer Inst., 82:1107-1112 (1990)). The absorbance of the treated cultures is reported as percent of that of control cultures, to provide an estimate of the fraction of the cells that survived, or of inhibition of growth rate.

neutral ceramidase = test: Neutral ceramidase of MDCK cell homogenate; type: biochemical, canine
Method: Acid and neutral ceramidases were assayed under conditions like those above, but the medium contained 110 μM [1-^14C]decanoyl sphingosine (10^5 cpm) in 340 μM dioleoylphosphatidylcholine liposomes and 0.34 mg of MDCK cellular protein homogenate. […] After 60 min in the ultrasonic bath, 3 ml of C-M 2:1, carrier decanoic acid, and 0.6 ml of 0.9% saline were added and the lipids in the lower layer were separated by TLC with C-HOAc 9:1. The liberated decanoic acid was scraped off the glass plate and counted.

[2] = system: Neutral sphingomyelinase (SMase); test: Neutral sphingomyelinase of MDCK cells; type: biochemical, canine
Method: Acid and neutral SMase assays were based on the procedures of Gatt et al. (Gatt, S. et al., “Assay of Enzymes of Lipid Metabolism With Colored and Fluorescent Derivatives of Natural Lipids,” Meth. Enzymol., 72:351-375 (1981)), using liposomes containing NBD-SM dispersed like the labeled ceramide (10 μM substrate and 30 μM lecithin). […] Incubation was at 37° C. for 30 min in the ultrasonic bath, then the fluorescent product, NBD-ceramide, was isolated by partitioning the assay mixture with 0.45 ml 2-propanol, 1.5 ml heptane, and 0.2 ml water. After centrifugation, a trace of contaminating NBD-SM was removed from 0.9 ml of the upper layer by washing with 0.35 ml water. The upper layer was analyzed with a fluorometer (460 nm excitation, 515 nm emission).

MDCK cells [3] = test: Lipid changes in MDCK cells (GlcCer, ceramide, diacylglycerol); type: cell-based, canine; conditions: 24 h
Sphingomyelin synthase = Sphingomyelin synthase of MDCK homogenate; type: biochemical, canine
Method: Sphingomyelin synthase was evaluated with 44 μM [^14C]decanoyl sphingosine (10^5 cpm) dispersed with 136 μM dioleoyllecithin as in the ceramide synthase assay, and 5 mM EDTA and 50 mM Hepes-Na^+ pH 7.5, in a total volume of 0.5 ml. MDCK homogenate was centrifuged at 600×g briefly, then at 100,000×g for 1 h, and the pellet was suspended in water and sonicated with a dipping probe. A portion of this suspension containing 300 μg of protein was used. Incubation was at 37° C. for 30 min, after which the lipids were treated as above, using C-M-W 60:35:8 for the isolation of the labeled decanoyl SM.

[4] = system: 9L brain gliosarcoma cells; test: Tumor cell growth in vitro (sulforhodamine B), 9L; type: cell-based; conditions: for IC50: 9L, rounded off to one digit, read-out: Inhibition of tumor cell growth in vitro, IC50; for growth, % of control growth: 9L cells
Procedure, shortened: (§1)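 Cells in RPMI 1640 + 5% FBS, plated 1000/well (H-460, 9L) or 2000/well (MCF-7); compounds added day 1 from 2 mM BSA stocks diluted 500-fold in medium. Growth read by sulforhodamine B staining, A520, at day 5 (H-460, 9L) or day 6 (MCF-7), as percent of control.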

MDCK cells [5] = test: Lipid changes in MDCK cells (GlcCer, ceramide, diacylglycerol); type: cell-based, canine; conditions: for Ceramide / Diglyceride: diglyceride kinase method; for level of GlcCer, estimated visually (TLC): 24 h incubation
Method: TLC of the cell lipids was run with C-M-W 24:7:1 (solvent D) or 60:35:8 (solvent E).
Ceramide accumulation was similar for both stereoisomers (data not shown). An unexpected finding is that noticeable ceramide accumulation appeared only at inhibitor concentrations that were more than enough to bring GlcCer levels to a very low point (e.g., at 2 or 4 μM). The changes in ceramide concentration were quantitated in a separate experiment by the diglyceride kinase method, which allows one to also determine diacylglycerol (DAG) concentration (Preiss, J. E. et al., “Quantitative Measurement of SN-1,2-Diacylglycerols Present in Platelets, Hepatocytes, and Ras- and Sis-Transformed Normal Rat Kidney Cells,” J. Biol. Chem., 261:8597-8600 (1986)). The results (Table 5) are similar to the visually estimated ones: at 0.4 μM BML-129 or -130 there was little effect on ceramide content but at 4 μM inhibitor, a substantial increase was observed. (While the duplicate protein contents per incubation dish were somewhat erratic in the high-dose dishes, in which growth was slow, the changes were nevertheless large and clear.) Accumulation of ceramide had previously been observed with PDMP, at a somewhat higher level of inhibitor in the medium (Shayman, J. A. et al., “Modulation of Renal Epithelial Cell Growth by Glucosylceramide: Association with Protein Kinase C, Sphingosine, and Diacylglyceride,” J. Biol. Chem., 266:22968-22974 (1991)). From the data for cellular protein per incubation dish, it can be seen that there was no growth inhibition at the 0.4 μM level with either compound but substantial inhibition at the 4 μM level, especially with the glucosyltransferase inhibitor, BML-130. This finding is similar to the ones made in longer incubations with human cancer cells.

MDCK cells [6] = test: MDCK cell growth (cellular protein per dish); type: cell-based, canine; conditions: duplicate dishes
Method: For the experiments with labeled thymidine, each 8.5 cm dish contained 500,000 Madin-Darby canine kidney (MDCK) cells in 8 ml of Dulbecco modified essential supplemented medium. […] The control cells were also incubated in the presence of BSA. The cells were washed with phosphate/saline and trichloroacetic acid, then scraped off the dishes, dissolved in alkali, and analyzed for protein and DNA incorporated tritium. [Methyl-^3H]thymidine (10 μCi) was added 4 h prior to harvesting.

[7] = system: H-460 lung large cell carcinoma cells; test: Tumor cell growth in vitro (sulforhodamine B), H-460; type: cell-based, human; conditions: rounded off to one digit, read-out: Inhibition of tumor cell growth in vitro, IC50
Procedure, shortened: as §1

IC50 [1] | Sphingomyelinase Synthase, enzyme activity (% of control) (Sphingomyelin synthase; 5 μM) | Sphingomyelinase Synthase, enzyme activity (% of control) (Sphingomyelin synthase; 50 μM) | IC50 [4] | IC50 [7] | Compound | Ceramidase pH 7.4, enzyme activity (% of control) (neutral ceramidase; 5 μM) | Ceramidase pH 7.4, enzyme activity (% of control) (neutral ceramidase; 50 μM) | Sphingomyelinase pH 7.1, enzyme activity (% of control) ([2]; 5 μM) | Sphingomyelinase pH 7.1, enzyme activity (% of control) ([2]; 50 μM) | inhibition of sphingomyelin synthase (Sphingomyelin synthase; 50 μM) | Ceramide (MDCK cells [5]; 0.4 μM) | Diglyceride (MDCK cells [5]; 0.4 μM) | Ceramide (MDCK cells [5]; 4 μM) | Diglyceride (MDCK cells [5]; 4 μM) | Protein (MDCK cells [6]; 0.4 μM in growth medium) | Protein (MDCK cells [6]; 4 μM in growth medium) | other results
2000 nM | 84 ± 27 % of control | 46 ± 11^b % of control | 2000 nM | 2000 nM | CCCCCCCCCCCCCCCC(=O)NC(CN1CCCC1)C(O)c1ccccc1 (racemic) [BML-129] | 100 ± 0 % of control | 99 ± 2 % of control | 105 ± 11 % of control | 142 ± 11^b % of control | 54% | 0.99 nmol/mg protein and 1.29 nmol/mg protein | 5.13 nmol/mg protein and 5.51 nmol/mg protein | 3.57 nmol/mg protein and 3.78 nmol/mg protein | 9.30 nmol/mg protein and 9.68 nmol/mg protein | 538 μg/dish and 500 μg/dish | 396 μg/dish and 311 μg/dish | ceramide concentration, TLC densitometry, compared with BML-130 (MDCK cells [3]; various concentrations): virtually identical; level of GlcCer, estimated visually (TLC) (MDCK cells [5]; 0.5 μM): greatly lowered
2000 nM | 87 ± 14 % of control | 39 ± 18^b % of control | 2000 nM | 3000 nM | CCCCCCCCCCCCCCCC(=O)NC(CN1CCCC1)C(O)c1ccccc1 (racemic) [BML-130] | 100 ± 15 % of control | 100 ± 15 % of control | 110 ± 7 % of control | 152 ± 14 % of control | 61% | 0.94 nmol/mg protein and 0.87 nmol/mg protein | 4.73 nmol/mg protein and 5.65 nmol/mg protein | 5.41 nmol/mg protein and 3.34 nmol/mg protein | 11.9 nmol/mg protein and 8.71 nmol/mg protein | 544 μg/dish and 538 μg/dish | 160 μg/dish and 268 μg/dish | ceramide concentration, TLC densitometry (MDCK cells [3]; 0.5 μM): 1.0 nmol/mg protein; ceramide concentration, TLC densitometry (MDCK cells [3]; 1 μM): 1.1 nmol/mg protein; ceramide concentration, TLC densitometry (MDCK cells [3]; 2 μM): 1.5 nmol/mg protein; ceramide concentration, TLC densitometry (MDCK cells [3]; 4 μM): 3.3 nmol/mg protein; growth, % of control growth ([4]; 2 μM inhibitor): 93%; growth, % of control growth ([4]; 3 μM inhibitor): 5%; level of GlcCer, estimated visually (TLC) (MDCK cells [5]; 0.3 μM): greatly lowered
